# Experiments:
# [1] = molecular target: eIF2B(βγδε)2 octamer (Homo sapiens, UniProt P49770+Q9UI10, P49770:N132D); test: GEF activity, loading of fluorescent GDP onto eIF2; type: biochemical; details: activator; stabilises assembly of two tetramers; substrate eIF2
# [2] = molecular target: eIF2B(βγδε)2 octamer (Homo sapiens, UniProt P49770+Q9UI10); test: GEF activity, loading of fluorescent GDP onto eIF2; type: biochemical; details: activator; stabilises assembly of two tetramers; substrate eIF2
# Chain of eIF2B(βγδε)2 octamer (Homo sapiens, UniProt P49770+Q9UI10) (P49770 whole entry): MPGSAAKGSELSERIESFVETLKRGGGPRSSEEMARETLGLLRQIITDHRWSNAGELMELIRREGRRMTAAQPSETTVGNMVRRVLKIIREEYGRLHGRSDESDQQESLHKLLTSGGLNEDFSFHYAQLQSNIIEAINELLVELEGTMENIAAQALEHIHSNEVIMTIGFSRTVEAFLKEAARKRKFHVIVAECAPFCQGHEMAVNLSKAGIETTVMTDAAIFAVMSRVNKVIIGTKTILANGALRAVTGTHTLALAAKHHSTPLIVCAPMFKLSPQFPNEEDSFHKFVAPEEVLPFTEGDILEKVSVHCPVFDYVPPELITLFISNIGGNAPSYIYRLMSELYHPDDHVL
# Chain of eIF2B(βγδε)2 octamer (Homo sapiens, UniProt P49770+Q9UI10) (Q9UI10 whole entry): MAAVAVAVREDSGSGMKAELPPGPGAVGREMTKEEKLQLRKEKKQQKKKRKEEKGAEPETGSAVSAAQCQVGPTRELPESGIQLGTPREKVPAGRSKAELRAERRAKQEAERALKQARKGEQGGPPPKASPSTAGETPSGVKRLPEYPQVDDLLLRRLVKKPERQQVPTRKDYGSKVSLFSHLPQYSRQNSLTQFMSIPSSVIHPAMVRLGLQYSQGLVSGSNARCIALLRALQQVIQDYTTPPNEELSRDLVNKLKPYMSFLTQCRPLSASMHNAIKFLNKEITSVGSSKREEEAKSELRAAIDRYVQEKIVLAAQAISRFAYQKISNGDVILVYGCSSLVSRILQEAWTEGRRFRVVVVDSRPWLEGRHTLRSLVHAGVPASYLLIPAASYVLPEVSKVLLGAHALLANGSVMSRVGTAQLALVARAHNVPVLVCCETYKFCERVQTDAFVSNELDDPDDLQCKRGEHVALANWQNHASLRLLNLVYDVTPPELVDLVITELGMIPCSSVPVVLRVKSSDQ
# Chain of eIF2B(βγδε)2 octamer (Homo sapiens, UniProt P49770+Q9UI10) (Q9NR50 whole entry partner): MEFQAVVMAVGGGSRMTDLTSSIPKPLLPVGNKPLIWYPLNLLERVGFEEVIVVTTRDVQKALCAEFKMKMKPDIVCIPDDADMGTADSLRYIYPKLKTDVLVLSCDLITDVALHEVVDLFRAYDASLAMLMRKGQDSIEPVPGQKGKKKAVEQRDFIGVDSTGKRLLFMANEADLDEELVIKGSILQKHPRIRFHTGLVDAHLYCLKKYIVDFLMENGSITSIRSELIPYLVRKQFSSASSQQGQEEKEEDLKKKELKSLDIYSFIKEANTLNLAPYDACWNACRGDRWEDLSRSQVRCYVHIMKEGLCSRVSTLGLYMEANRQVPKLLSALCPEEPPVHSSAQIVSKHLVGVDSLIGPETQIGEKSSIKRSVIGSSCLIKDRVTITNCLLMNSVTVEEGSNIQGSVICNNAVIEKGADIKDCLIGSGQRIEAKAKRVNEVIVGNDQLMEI
# Chain of eIF2B(βγδε)2 octamer (Homo sapiens, UniProt P49770+Q9UI10) (Q13144 2-721 partner): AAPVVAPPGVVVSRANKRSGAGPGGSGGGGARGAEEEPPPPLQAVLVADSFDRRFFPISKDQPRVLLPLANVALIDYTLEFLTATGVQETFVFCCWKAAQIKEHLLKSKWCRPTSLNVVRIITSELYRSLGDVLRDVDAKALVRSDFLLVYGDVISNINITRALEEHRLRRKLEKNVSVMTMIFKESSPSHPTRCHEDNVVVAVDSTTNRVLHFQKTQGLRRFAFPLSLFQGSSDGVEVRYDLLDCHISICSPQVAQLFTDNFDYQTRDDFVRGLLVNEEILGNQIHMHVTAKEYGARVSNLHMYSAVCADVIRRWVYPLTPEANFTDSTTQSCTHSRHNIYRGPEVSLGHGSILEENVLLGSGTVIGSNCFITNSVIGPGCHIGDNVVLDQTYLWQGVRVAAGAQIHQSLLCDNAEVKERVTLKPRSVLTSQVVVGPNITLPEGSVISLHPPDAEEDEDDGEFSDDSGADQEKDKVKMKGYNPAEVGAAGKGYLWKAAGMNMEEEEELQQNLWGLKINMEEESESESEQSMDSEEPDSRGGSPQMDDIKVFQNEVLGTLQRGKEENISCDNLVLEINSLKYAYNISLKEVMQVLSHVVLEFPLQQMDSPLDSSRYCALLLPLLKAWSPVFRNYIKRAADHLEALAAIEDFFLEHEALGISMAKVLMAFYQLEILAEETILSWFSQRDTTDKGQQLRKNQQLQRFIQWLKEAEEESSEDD
# Chain of eIF2B(βγδε)2 octamer (Homo sapiens, UniProt P49770+Q9UI10, P49770:N132D) (P49770 whole entry N132D): as the sequence (P49770 whole entry) above, with N132D counted along it
# Chain of eIF2B(βγδε)2 octamer (Homo sapiens, UniProt P49770+Q9UI10, P49770:N132D) (Q9UI10 whole entry): as the sequence (Q9UI10 whole entry) above
# Chain of eIF2B(βγδε)2 octamer (Homo sapiens, UniProt P49770+Q9UI10, P49770:N132D) (Q9NR50 whole entry partner): as the sequence (Q9NR50 whole entry partner) above
# Chain of eIF2B(βγδε)2 octamer (Homo sapiens, UniProt P49770+Q9UI10, P49770:N132D) (Q13144 2-721 partner): as the sequence (Q13144 2-721 partner) above
smiles,measurement,setting,value
O=C(COc1ccc(Cl)cc1)N[C@H]1CC[C@H](NC(=O)COc2ccc(Cl)cc2)CC1 [ISRIB],"GEF activity, loading of fluorescent GDP onto eIF2",[1],eIF2B-βN132D tetramers and ISRIB-stabilized octamers
same,"GEF activity, loading of fluorescent GDP onto eIF2",[2],GEF activity of the ISRIB-stabilized eIF2B octamer

# Reference: publication PMC6601628 (Science (New York, N.Y.), 2019)
